Marks after values point to notes of the source that are not given here.
Experiments:
[1] = system: U-251 (human glioblastoma); test: Chou and Talalay combination assay with beta-caryophyllene; assay type: cell-based; settings: anticancer drug in combination with beta-caryophyllene; Chou and Talalay CI; 48 h
Method: (§1) Each solution was prepared fresh and use within 1 hour after preparation.
(§2) Cells were then harvested using trypsine-EDTA. Cells were counted using a hemocytometer and resuspended in DMEM+10% FBS medium.
(§3) Proliferation assay: Increasing concentrations of the anticancer agents and/or beta-caryophyllene were added to 96-well plate (100 μL per well). The final concentration of solvent in the culture medium was maintained below 0.5% (volume/volume) to avoid solvent toxicity.
(§4) The cells were incubated for 48 h at 37° C. and 5% CO2. Cytotoxicity was assessed using the resazurin reduction test (O'Brien et al., 2000). Fluorescence was measured on an automated 96-well Fluoroskan Ascent FI™ plate reader (Labsystems) using excitation and emission wavelengths of 530 nm and 590 nm, respectively. Resazurin was then removed.
(§5) Microplates were frozen at −20° C. overnight. Plates were thawed, a volume of 100 μl of 0.01% SDS in water was added to the wells, the plates were shaken at room temperature for 3 hours and then frozen once more at −20° C. overnight. […] Plates were shaken in the dark (at room temperature) for at least 2 hours, and fluorescence was measured on an automated 96-well Fluoroskan Ascent FI™ plate reader (Labsystems) using excitation and emission wavelengths of 360 nm and 460 nm, respectively.
(§6) Results were analyzed using the Chou and Talalay method (9) and may be interpreted as follow: Cl>1 represents an antagonist effect of beta-caryophyllene with the corresponding anticancer agent; Cl=1 represents an additive effect of beta-caryophyllene with the corresponding anticancer agent; Cl<1 represents a potentiating effect of beta-caryophyllene with the corresponding anticancer agent.

[2] = system: GL-261 (murine glioblastoma); test: as above; assay type: cell-based; settings: anticancer drug in combination with beta-caryophyllene; Chou and Talalay CI; 48 h
Method: as §1, §2, §3, §4, §5, §6

[3] = system: MEL-2 (human melanoma); test: as above; assay type: cell-based; settings: anticancer drug in combination with beta-caryophyllene; Chou and Talalay CI; 48 h
Method: as §1, §2, §3, §4, §5, §6

[4] = system: B16 (murine melanoma); test: as above; assay type: cell-based; settings: anticancer drug in combination with beta-caryophyllene; Chou and Talalay CI; 48 h
Method: as §1, §2, §3, §4, §5, §6

[5] = system: Lewis lung carcinoma; test: In vivo potentiating effect of Formulation A on paclitaxel against Lewis lung cancer-bearing mice; settings: for CTW (estimated weight) / T/C (estimated weight) / T/C (real weight) / TGI (estimated weight) / TGI (real weight) / Tumor weight (real weight): i.v. day 1 to 4, day 18
Method: (§7) Cells: The Lewis lung carcinoma cell line was used (#CRL-1642, lot #4372266, ATCC). […] Cells were then harvested with up and down only. Cells were counted using a hemacytometer and resuspended in DMEM medium without SVF.
Mice: 6-weeks old C57BL/6 male mice were used Charles Rivers Inc., St-Constant, QC). […] The mice of each group (n=10) were treated with a volume of 100 μL containing saline, Formulation A (see Example 5), paclitaxel or combination of the Formulation A with paclitaxel.
(§8) Inoculation: 100 μL of a solution containing 1×10^7 cells/mL were inoculated subcutaneously in each mouse.
Treatment: Lewis lung carcinoma cells were inoculated subcutaneous on C57BL/6 mice on day 0. The potentiating effect of the Formulation A combined with paclitaxel was evaluated against Lewis lung carcinoma-bearing mice (C57BL/6). The mice of each group (n=10) were treated with a volume of 100 μL containing saline, Formulation A, paclitaxel or a combination of Formulation A with paclitaxel in doses presented in Table 10 below: The treatments were administered intravenous on day 1 to 4. The length and the width of tumor were measured with calliper on day 8 to day 18. In the end of the experiment (day 18), the tumors were extracted and weighed.
Values of p<0.05 were considered statistically significant.
(b) Tumor weight (TW): The TW of each tumor was measured on day 18 after the sacrifice of each mouse. TW values were averaged within each group. […] Values of p<0.05 were considered statistically significant.

[6] = system: Panc 05.04 (pancreas cancer); test: Chou and Talalay combination assay with beta-caryophyllene; assay type: cell-based, Human; settings: in combination with beta-caryophyllene in ethanol (40-150 mM), 48 h
Method: Agent: […] Each solution was prepared fresh and use within 1 hour after preparation. 5 μL of each test article were added to 1 mL of culture medium for a final concentration of 0.5% of solvent and this concentration have no toxic effect on cells. Cells: The Panc 05.04 cell line was used. Cells were harvested using trypsine-EDTA. […] Cells were plated in 96-well microplates (BD Falcon) at a density of 7.5×10^3 cells per well for Chou and Talalay assay in 100 μL of culture medium and were allowed to adhere for 24 hours before treatment. Proliferation assay: Increasing concentrations of the anticancer agents and/or beta-caryophyllene were added to 96-well plate (100 μL per well). The final concentration of solvent in the culture medium was maintained below 0.5% (volume/volume) to avoid solvent toxicity. […] The cells were incubated for 48 h at 37° C. and 5% CO2. Cytotoxicity was assessed using the resazurin reduction test (8). […] Resazurin was then removed. Data analysis: Results were analyzed using the Chou and Talalay method (9) and may be interpreted as follow: […]

[7] = system: MCF-7 (breast cancer); test: as above; assay type: cell-based, human; settings: anticancer drug in combination with beta-caryophyllene; Chou and Talalay CI; 48 h
Method: as §1, §2, §3, §4, §5, §6

[8] = system: A-549 (lung cancer); test: as above; assay type: cell-based, human; settings: anticancer drug in combination with beta-caryophyllene; Chou and Talalay CI; 48 h
Method: as §1, §2, §3, §4, §5, §6

[9] = system: DLD-1 (colon cancer); test: as above; assay type: cell-based, human; settings: anticancer drug in combination with beta-caryophyllene; Chou and Talalay CI; 48 h
Method: as §1, §2, §3, §4, §5, §6

[10] = system: PA-1 (ovary cancer); test: as above; assay type: cell-based, human; settings: anticancer drug in combination with beta-caryophyllene; Chou and Talalay CI; 48 h
Method: as §1, §2, §3, §4, §5, §6

[11] = system: MDA-MB-231 (breast cancer); test: as above; assay type: cell-based, human; settings: anticancer drug in combination with beta-caryophyllene; Chou and Talalay CI; 48 h
Method: as §1, §2, §3, §4, §5, §6

[12] = Toxicity of Formulation A and/or Taxotere treatments (body weight) on Lewis lung cancer-bearing mice; settings: for Loss of weight > 20% (n = 10): day 1 to day 8
Method: The toxicity of the treatments described in Table 7 above was determined using the body weight of mice.

[13] = system: Lewis lung carcinoma; test: In vivo potentiating effect of Formulation A on Taxotere against Lewis lung cancer-bearing mice; settings: i.v. days 1-4, day 18
Method: as §7
Mice: 6-weeks old C57BL/6 male mice were used (Charles Rivers Inc., St-Constant, QC).
as §8
The mice of each group (n=10) were treated with a volume of 100 μL containing saline, Formulation A of Example 5 above (hereinafter referred to as Formulation A), Taxotere™ or a combination of Formulation A with Taxotere™ in doses presented in Table 7 below: […]
Values of p<0.05 were considered statistically significant. The length and the width of tumor were measured with calliper on day 10 to day 18.

SMILES: CC(=O)O[C@H]1C(=O)[C@@]2(C)[C@H]([C@H](OC(=O)c3ccccc3)[C@]3(O)C[C@H](OC(=O)[C@H](O)[C@@H](NC(=O)c4ccccc4)c4ccccc4)C(C)=C1C3(C)C)[C@]1(OC(C)=O)CO[C@@H]1C[C@@H]2O [Paclitaxel, paclitaxel]
- Potentiating activity U-251 [1]: (1) (Very High: potentiating or additive activity to IC20 and CI < 0.6 to IC50)
- Potentiating activity GL-261 [2]: (2) (High: CI < 0.5 to IC50)
- Potentiating activity MEL-2 [3]: (3) (Moderate: 0.5 < CI < 0.8 to IC50)
- Potentiating activity B16 [4]: (1) (Very High: potentiating or additive activity to IC20 and CI < 0.6 to IC50)
- CTW (estimated weight) ([5]; paclitaxel 10 mg/kg): 568 ± 155 mg
- T/C (estimated weight) ([5]; paclitaxel 10 mg/kg): 81%
- T/C (real weight) ([5]; paclitaxel 10 mg/kg): 87%
- TGI (estimated weight) ([5]; paclitaxel 10 mg/kg): 19%
- TGI (real weight) ([5]; paclitaxel 10 mg/kg): 13%
- Tumor weight (real weight) ([5]; paclitaxel 10 mg/kg): 410 ± 90 mg
- CTW (estimated weight) ([5]; paclitaxel 20 mg/kg): 510 ± 274 mg
- T/C (estimated weight) ([5]; paclitaxel 20 mg/kg): 73%
- T/C (real weight) ([5]; paclitaxel 20 mg/kg): 91%
- TGI (estimated weight) ([5]; paclitaxel 20 mg/kg): 27%
- TGI (real weight) ([5]; paclitaxel 20 mg/kg): 9%
- Tumor weight (real weight) ([5]; paclitaxel 20 mg/kg): 420 ± 350 mg
- CTW (estimated weight) ([5]; paclitaxel 30 mg/kg): 446 ± 118^c,d mg
- T/C (estimated weight) ([5]; paclitaxel 30 mg/kg): 64%
- T/C (real weight) ([5]; paclitaxel 30 mg/kg): 81%
- TGI (real weight) ([5]; paclitaxel 30 mg/kg): 19%
- Tumor weight (real weight) ([5]; paclitaxel 30 mg/kg): 380 ± 200 mg
- effect on tumor growth (in words) ([5]; paclitaxel 10 and 20 mg/kg alone): do not inhibit significantly tumor growth
- Potentiating activity Panc 05.04 [6]: Potentiating > IC80
- Potentiating activity MCF-7 [7]: (1) (Very High: CI equal or below 1 at IC20 and Cl below 0.6 to IC50)
- Potentiating activity A-549 [8]: (3) (Moderate: 0.5 < CI < 0.8 at IC50)
- Potentiating activity DLD-1 [9]: (2) (High: CI below 0.5 at IC50)
- Potentiating activity PA-1 [10]: (2) (High: CI < 0.5 to IC50)
- Potentiating activity MDA [11]: (3) (Moderate: 0.5 < CI < 0.8 at IC50)

SMILES: CC(=O)O[C@@]12CO[C@@H]1C[C@H](O)[C@@]1(C)C(=O)[C@H](O)C3=C(C)[C@@H](OC(=O)[C@H](O)[C@@H](NC(=O)OC(C)(C)C)c4ccccc4)C[C@@](O)([C@@H](OC(=O)c4ccccc4)[C@H]21)C3(C)C [Taxotere ™, docetaxel]
- loss of weight (day 7) with regard to the initial weight (day 1) ([12]; Taxotere 5 mg/kg): about 0.55%
- Loss of weight > 20% (n = 10) ([12]; Taxotere 5 mg/kg): 0
- loss of weight (day 7) with regard to the initial weight (day 1) ([12]; Taxotere 10 mg/kg): ~3.33%
- Loss of weight > 20% (n = 10) ([12]; Taxotere 10 mg/kg): 0
- loss of weight (day 7) with regard to the initial weight (day 1) ([12]; Taxotere 15 mg/kg): about 13%
- Loss of weight > 20% (n = 10) ([12]; Taxotere 15 mg/kg): 7
- CTW ([13]; Taxotere 5 mg/kg): 380 ± 116 mg
- T/C ([13]; Taxotere 5 mg/kg): 89%
- TGI ([13]; Taxotere 5 mg/kg): 11%
- TGI ([13]; Taxotere 5 mg/kg, listed as Taxotere™): about 11%
- CTW ([13]; Taxotere 10 mg/kg): 346 ± 107 mg
- T/C ([13]; Taxotere 10 mg/kg): 81%
- TGI ([13]; Taxotere 10 mg/kg): 19%
- CTW ([13]; Taxotere 15 mg/kg): 178 ± 112^c mg
- T/C ([13]; Taxotere 15 mg/kg): 42%
- TGI ([13]; Taxotere 15 mg/kg): 58%
- TGI ([13]; Taxotere 15 mg/kg, listed as Taxotere™): about 58%
- Potentiating activity Panc 05.04 [6]: Potentiating > IC10

From patent US20110008465A1, “SESQUITERPENE FORMULATIONS, KITS AND METHODS OF USE THEREOF” (priority 2007, published 2011)
